In patent US20030216361A1, “Therapeutic compositions effective against gram positive bacteria” (priority 2000, published 2003):
Values joined by “and” are separate entries in the source; they are usually repeats but may differ in a detail not shown here. Equal values may be shown once.

Tested on: ATCC 14154, mouse virulent Staphylococcus aureus
Experiment: Mouse model of topical Gram positive (Staphylococcus aureus) infection, infected suture
Type: in vivo
Conditions: Group 5 enrofloxacin (Baytril) 10 mg/kg SQ SID×7 days, mice
Method: The model, as described in J. Gisby and J. Bryant, Antimicrobial Agents and Chemotherapy, February 2000, Vol. 44, No. 2, p 255-260, was used.
Fifty HSD:ICR male mice weighing 12-14 grams were ordered and allowed to acclimate 7 days. Mice were allocated to 5 groups of 10 animals each.
Group 1: infected suture placed, no treatment
Group 2: topical GRPB, 12.5 mg/kg BID×7 days
Group 3: topical GRPB, 25 mg/kg BID×7 days
Group 4: clean suture, no treatment
Group 5: enrofloxacin (Baytril) 10 mg/kg SQ SID×7 days
ATCC 14154, mouse virulent Staphylococcus aureus was grown in BHI broth overnight (12 hours) at 38 degrees C. Forty-five minutes prior to surgery, silk suture (2-0 size, 1 cm lengths w/swaged-on blunt needle) was soaked in the broth for 30 minutes, excess liquid was then removed by blotting with filter paper.
Mice were anesthetized with a ketamine (40 mg/kg), midazolam (2 mg/kg), and butorphanol (0.1 mg/kg) as a single IP injection.
The skin on the back of the mouse was prepared for aseptic surgery by clipping, cleansing with iodine scrub, and rinsing with alcohol. Mice were kept warm during surgery on a recirculating hot water blanket.
The suture was placed just under the skin on the dorsum of the animal using sterile instruments. The suture was knotted in the subcutaneous tissue to keep it in place. A half-thickness skin wound was made over the suture using the side of an 18 gauge needle as a scalpel.
Mice were allowed to recover in the home cage.
GRPB-10-15A was reconstituted as directed, using a minimal amount of methanol followed by dilution to required volume in sterile physiologic saline.
Injections were given using insulin syringes with 30 gauge needles. Topical administration was placed over the wound site. The mice were first treated 4 hours after surgery and were treated once or twice daily thereafter.
After 7 days of treatment animals were euthanized with IP pentobarbital euthanasia solution. The suture lengths were removed and placed in 2 mls phosphate buffered saline. Serial dilutions were performed and results reported as actual counts (number of Staph colonies per suture).

## CCN1CCN(c2cc3c(cc2F)c(=O)c(C(=O)O)cn3C2CC2)CC1 [Baytril, enrofloxacin, reference compound]
Animals 1-10, 10 mg/kg
  Total colonies (number of Staph colonies per suture), individual animals: 18 colonies per suture and 30 colonies per suture and 24 colonies per suture and 100 colonies per suture and 0 colonies per suture (2×) and 74 colonies per suture and 13 colonies per suture and 740 colonies per suture and 22 colonies per suture
Average of 10 animals
  Total colonies (number of Staph colonies per suture), Ave.: 102 colonies per suture
